Results published in ChEMBL document CHEMBL4507319 (2021).

How the values were obtained:
[1] = molecular target: Proto-oncogene tyrosine-protein kinase ROS (Homo sapiens) (UniProt P08922); settings: Compound concentration 1000.0 nM
[2] = molecular target: Muscarinic acetylcholine receptor M5 (Homo sapiens) (UniProt P08912); settings: Compound concentration 10.0 uM
[3] = molecular target: Mitogen-activated protein kinase kinase kinase 19 (Homo sapiens) (UniProt Q56UN5); settings: Compound concentration 1000.0 nM
[4] = molecular target: 5-hydroxytryptamine receptor 1D (Homo sapiens) (UniProt P28221); settings: Compound concentration 10.0 uM
[5] = system: Tyrosine-protein kinase ABL1 (Homo sapiens), P00519 [Y253F]; settings: Compound concentration 1000.0 nM
[6] = molecular target: Mitogen-activated protein kinase 10 (Homo sapiens) (UniProt P53779); settings: Compound concentration 1000.0 nM
[7] = system: Mast/stem cell growth factor receptor Kit (Homo sapiens), P10721 [V559D,T670I]; settings: Compound concentration 1000.0 nM
[8] = molecular target: Ephrin type-A receptor 7 (Homo sapiens) (UniProt Q15375); settings: Compound concentration 1000.0 nM
[9] = molecular target: T1, Serine/threonine-protein kinase ULK3 (Homo sapiens) (UniProt Q6PHR2); settings: Compound concentration 1000.0 nM
T1 sequence (whole entry): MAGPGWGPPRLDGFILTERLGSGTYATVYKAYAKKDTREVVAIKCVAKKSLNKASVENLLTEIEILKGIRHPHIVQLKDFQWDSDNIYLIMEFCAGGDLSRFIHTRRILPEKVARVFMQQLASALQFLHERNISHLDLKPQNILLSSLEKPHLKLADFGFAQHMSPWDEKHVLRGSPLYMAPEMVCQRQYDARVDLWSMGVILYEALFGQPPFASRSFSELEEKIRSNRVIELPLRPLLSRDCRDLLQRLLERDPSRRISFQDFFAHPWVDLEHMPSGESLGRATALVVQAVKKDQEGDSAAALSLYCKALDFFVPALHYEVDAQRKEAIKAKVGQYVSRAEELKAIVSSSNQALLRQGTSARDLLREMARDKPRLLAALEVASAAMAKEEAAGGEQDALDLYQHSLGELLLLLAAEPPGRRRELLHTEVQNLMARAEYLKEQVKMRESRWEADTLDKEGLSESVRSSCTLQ

[10] = molecular target: Angiopoietin-1 receptor (Homo sapiens) (UniProt Q02763); settings: Compound concentration 1000.0 nM
[11] = molecular target: T2, Ephrin type-B receptor 1 (Homo sapiens) (UniProt P54762); settings: Compound concentration 1000.0 nM
T2 sequence (whole entry): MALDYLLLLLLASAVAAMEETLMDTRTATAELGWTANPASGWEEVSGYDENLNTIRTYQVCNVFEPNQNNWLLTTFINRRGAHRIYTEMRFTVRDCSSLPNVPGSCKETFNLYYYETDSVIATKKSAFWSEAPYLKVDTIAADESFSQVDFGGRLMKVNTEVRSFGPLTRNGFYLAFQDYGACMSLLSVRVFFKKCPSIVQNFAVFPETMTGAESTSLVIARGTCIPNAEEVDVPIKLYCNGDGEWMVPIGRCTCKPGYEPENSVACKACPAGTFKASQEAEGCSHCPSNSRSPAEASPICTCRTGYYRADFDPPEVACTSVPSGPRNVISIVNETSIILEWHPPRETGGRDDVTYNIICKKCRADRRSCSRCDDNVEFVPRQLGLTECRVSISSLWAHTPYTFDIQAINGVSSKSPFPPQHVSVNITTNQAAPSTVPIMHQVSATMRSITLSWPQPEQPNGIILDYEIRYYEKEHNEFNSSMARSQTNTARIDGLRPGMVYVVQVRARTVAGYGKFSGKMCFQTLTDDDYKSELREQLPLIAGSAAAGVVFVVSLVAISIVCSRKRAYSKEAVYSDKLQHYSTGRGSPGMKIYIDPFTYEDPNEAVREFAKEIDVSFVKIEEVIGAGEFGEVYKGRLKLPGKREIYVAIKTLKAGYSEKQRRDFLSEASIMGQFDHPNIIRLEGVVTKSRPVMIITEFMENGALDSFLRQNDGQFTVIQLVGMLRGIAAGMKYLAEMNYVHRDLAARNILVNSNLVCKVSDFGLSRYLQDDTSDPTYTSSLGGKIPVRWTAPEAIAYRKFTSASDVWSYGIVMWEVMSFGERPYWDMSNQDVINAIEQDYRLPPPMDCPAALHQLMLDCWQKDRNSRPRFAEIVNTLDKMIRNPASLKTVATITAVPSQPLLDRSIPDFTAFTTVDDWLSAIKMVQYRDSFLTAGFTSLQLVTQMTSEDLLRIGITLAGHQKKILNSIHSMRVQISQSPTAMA

[12] = molecular target: Casein kinase I isoform alpha (Homo sapiens) (UniProt P48729); settings: Compound concentration 1000.0 nM
[13] = molecular target: Ribosomal protein S6 kinase alpha-2 (Homo sapiens, UniProt Q15349); settings: Compound concentration 1000.0 nM
[14] = molecular target: Cyclin-dependent kinase 17 (Homo sapiens) (UniProt Q00537); settings: Compound concentration 1000.0 nM

Casein kinase I isoform alpha (Homo sapiens), sequence (P48729 2-337 limits assumed): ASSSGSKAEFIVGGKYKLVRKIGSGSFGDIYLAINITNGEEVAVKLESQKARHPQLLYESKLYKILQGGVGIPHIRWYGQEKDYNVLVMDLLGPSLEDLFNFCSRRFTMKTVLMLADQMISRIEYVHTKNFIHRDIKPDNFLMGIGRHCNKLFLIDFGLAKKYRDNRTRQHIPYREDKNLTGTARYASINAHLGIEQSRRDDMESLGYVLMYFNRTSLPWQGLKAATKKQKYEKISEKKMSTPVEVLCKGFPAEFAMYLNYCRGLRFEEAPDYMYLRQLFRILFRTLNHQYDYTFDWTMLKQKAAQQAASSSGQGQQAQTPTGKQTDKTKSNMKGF
Ribosomal protein S6 kinase alpha-2, sequence (Q15349 whole entry): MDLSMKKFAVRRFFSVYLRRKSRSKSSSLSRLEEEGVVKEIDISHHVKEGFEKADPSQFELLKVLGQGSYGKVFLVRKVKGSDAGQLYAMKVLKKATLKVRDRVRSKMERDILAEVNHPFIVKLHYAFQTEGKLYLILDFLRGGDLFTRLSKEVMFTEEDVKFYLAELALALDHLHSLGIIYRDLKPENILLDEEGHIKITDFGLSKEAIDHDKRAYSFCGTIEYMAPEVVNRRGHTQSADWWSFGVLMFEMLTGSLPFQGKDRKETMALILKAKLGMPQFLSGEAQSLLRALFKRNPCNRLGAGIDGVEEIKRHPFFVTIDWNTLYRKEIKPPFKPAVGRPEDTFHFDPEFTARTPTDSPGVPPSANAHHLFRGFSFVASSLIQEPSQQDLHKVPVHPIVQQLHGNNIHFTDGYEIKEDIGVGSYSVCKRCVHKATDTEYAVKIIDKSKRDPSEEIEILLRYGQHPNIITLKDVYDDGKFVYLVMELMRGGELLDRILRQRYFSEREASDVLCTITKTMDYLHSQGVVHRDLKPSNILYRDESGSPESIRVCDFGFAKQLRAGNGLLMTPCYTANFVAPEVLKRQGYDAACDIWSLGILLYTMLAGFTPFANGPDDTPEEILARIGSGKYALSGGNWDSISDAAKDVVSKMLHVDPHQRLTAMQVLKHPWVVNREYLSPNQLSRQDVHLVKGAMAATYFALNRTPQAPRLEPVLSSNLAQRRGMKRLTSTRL
Mitogen-activated protein kinase 10 (Homo sapiens), sequence (P53779 whole entry): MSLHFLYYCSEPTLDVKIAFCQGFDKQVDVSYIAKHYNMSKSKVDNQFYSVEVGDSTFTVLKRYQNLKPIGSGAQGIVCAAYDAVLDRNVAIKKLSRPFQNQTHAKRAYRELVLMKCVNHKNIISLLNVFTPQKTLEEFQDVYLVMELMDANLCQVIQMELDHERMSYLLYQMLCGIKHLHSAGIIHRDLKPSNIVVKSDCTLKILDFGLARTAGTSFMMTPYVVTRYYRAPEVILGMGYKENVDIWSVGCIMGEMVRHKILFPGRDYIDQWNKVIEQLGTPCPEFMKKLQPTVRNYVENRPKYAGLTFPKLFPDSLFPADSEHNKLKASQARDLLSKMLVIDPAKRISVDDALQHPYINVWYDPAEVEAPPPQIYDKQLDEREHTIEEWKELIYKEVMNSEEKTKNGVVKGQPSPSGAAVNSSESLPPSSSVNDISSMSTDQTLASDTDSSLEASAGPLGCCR
Proto-oncogene tyrosine-protein kinase ROS (Homo sapiens), sequence (P08922 whole entry): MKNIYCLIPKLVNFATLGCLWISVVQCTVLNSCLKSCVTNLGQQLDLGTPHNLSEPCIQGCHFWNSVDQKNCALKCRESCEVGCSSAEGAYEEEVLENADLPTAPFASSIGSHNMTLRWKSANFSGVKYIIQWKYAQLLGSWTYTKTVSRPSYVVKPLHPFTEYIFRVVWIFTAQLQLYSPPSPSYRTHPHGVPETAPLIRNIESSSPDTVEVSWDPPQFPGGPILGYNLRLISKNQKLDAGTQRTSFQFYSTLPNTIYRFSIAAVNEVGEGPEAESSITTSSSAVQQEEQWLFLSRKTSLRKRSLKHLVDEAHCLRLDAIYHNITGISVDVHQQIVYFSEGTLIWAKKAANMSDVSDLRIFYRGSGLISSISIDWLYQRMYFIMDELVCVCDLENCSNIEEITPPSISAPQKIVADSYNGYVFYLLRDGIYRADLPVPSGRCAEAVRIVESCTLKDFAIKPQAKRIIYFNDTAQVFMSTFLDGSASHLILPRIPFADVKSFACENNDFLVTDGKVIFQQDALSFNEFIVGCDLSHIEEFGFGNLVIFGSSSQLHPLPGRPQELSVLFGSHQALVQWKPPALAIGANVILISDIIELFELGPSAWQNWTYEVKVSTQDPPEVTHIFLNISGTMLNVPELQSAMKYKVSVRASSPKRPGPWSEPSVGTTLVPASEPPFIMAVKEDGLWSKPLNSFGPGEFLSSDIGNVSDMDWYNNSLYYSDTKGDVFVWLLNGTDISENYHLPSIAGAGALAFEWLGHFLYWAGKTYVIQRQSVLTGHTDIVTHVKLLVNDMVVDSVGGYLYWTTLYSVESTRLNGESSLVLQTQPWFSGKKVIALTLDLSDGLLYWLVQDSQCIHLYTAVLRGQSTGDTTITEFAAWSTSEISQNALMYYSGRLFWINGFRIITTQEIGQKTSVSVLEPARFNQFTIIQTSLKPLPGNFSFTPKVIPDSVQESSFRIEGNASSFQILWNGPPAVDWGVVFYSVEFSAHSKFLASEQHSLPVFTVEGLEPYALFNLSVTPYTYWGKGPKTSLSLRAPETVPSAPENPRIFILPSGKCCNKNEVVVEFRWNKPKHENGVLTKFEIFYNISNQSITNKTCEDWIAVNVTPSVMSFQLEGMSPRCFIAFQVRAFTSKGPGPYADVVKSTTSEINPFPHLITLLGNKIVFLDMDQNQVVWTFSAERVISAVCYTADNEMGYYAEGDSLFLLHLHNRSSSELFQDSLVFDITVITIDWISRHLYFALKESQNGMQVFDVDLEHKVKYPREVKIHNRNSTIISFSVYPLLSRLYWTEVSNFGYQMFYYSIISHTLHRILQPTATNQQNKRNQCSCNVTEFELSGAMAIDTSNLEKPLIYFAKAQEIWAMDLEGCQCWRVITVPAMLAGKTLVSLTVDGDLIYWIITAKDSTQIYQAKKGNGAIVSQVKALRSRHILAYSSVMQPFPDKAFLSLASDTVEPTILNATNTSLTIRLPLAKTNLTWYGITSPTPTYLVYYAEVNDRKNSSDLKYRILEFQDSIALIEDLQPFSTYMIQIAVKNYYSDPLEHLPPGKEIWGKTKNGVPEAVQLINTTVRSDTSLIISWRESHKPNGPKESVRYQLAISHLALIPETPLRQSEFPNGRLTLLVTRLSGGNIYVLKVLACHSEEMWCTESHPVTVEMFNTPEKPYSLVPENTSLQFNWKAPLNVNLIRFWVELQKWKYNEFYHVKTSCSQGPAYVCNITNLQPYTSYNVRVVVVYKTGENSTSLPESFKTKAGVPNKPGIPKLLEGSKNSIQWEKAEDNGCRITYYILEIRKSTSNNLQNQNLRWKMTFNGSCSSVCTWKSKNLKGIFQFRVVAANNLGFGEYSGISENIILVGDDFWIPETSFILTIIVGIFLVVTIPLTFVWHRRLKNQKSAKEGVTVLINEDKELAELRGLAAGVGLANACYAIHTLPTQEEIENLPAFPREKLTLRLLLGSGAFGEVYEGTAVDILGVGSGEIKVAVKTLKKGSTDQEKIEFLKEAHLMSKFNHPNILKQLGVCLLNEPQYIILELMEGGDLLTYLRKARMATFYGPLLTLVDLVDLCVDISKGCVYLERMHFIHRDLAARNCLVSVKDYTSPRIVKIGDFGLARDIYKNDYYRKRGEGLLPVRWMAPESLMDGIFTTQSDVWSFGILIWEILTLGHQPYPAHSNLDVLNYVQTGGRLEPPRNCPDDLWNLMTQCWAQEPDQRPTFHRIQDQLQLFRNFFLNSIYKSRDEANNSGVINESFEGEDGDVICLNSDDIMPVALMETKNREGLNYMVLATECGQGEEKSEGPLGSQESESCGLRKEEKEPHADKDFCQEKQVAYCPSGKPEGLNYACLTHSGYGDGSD
Mast/stem cell growth factor receptor Kit (Homo sapiens), P10721 [V559D,T670I], sequence (P10721 whole entry V559D/T670I): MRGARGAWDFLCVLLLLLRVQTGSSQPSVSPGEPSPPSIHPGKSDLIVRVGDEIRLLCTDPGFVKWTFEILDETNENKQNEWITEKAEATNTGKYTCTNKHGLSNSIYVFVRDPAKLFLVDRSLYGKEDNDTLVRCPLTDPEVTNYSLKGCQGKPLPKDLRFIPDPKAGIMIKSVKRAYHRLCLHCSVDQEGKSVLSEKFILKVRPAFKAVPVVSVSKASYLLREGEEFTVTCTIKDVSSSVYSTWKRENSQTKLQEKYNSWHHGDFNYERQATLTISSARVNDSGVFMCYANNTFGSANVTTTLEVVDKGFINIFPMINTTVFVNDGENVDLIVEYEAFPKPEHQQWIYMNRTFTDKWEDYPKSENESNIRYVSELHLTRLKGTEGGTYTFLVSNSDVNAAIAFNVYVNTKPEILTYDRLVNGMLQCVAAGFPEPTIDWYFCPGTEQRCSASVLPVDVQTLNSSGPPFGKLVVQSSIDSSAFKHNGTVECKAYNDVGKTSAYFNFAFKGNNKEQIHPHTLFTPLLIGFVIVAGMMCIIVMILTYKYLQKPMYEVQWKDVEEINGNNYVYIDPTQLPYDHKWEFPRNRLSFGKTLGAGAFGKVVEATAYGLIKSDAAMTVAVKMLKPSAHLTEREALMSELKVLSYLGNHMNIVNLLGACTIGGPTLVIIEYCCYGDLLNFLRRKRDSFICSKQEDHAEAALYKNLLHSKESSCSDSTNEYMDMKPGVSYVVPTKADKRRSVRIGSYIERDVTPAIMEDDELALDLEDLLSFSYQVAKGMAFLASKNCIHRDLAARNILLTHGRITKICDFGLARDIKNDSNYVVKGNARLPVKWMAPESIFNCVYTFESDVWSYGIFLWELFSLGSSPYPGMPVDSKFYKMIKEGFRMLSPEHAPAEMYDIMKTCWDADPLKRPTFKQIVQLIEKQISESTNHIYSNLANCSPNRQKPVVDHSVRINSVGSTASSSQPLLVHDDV

CCc1ccccc1C(=O)Nc1n[nH]c2c(C)c(F)c(C3C(C#N)=C(C)N(C)C(C)=C3C#N)cc12 [BAY-3827]
inactive: residual activity [1] 98% | inhibition [2] 17.9% | residual activity [3] 74% | inhibition [4] 4.65% | residual activity [5] 85% | residual activity [6] 92% | residual activity [7] 98% | residual activity [8] 81% | residual activity [9] 82% | residual activity [10] 91% | residual activity [11] 100% | residual activity [12] 96% | residual activity [13] 100% | residual activity [14] 93%

CC1=C(C#N)C(c2ccc3c(c2)c(NC(=O)c2ccccc2C)nn3C)C(C#N)=C(C)N1 [BAY-974]
inactive: residual activity [1] 100% | inhibition [2] 6.82% | residual activity [3] 82% | inhibition [4] 2.45% | residual activity [5] 82% | residual activity [6] 100% | residual activity [7] 100% | residual activity [8] 100% | residual activity [9] 84% | residual activity [10] 98% | residual activity [11] 99% | residual activity [12] 70% | residual activity [13] 94% | residual activity [14] 100%
